We go through 1 molecule from US8501245B2, “Selectively inhibiting estrogen production and providing estrogenic effects in the human body” (Morinda, Inc., priority 2000, dated 2013).

Values joined by “and” are separate entries in the source; they are usually repeats but may differ in a detail not shown here. Identical values can stand only once.

The test relates to ICR derived female immature mice. The test is described as follows: Protocol # 531000 Estrogenic Agonism in Mice (uterine wet weight). In kind it is in vivo. The settings on record: 0.03 mg/kg PO; for % Increase in uterine wet weight: compared with historical vehicle control (16.5 mg). As to the method: Tahitian Noni® Puree Juice Concentrate (TNPJC) dry form was evaluated for possible estrogenic agonism is ICT derived immature female mice at a maximum tolerated dose of 4000 mg/kg administered orally once daily for 3 consecutive days. The dry form of TNPJC resulted from using a Rotor Vap with pressure and low temperature.
Test substance TNCONC was evaluated for possible Estrogenic Agonism in ICR derived female immature mice at a maximum tolerated dose of 4000 mg/kg administered orally once daily for 3 consecutive days.
1. Test Substances and Dosing Pattern—TNCONC, provided by Morinda, Inc., was dissolved in 2% Tween 80/0.9% NaCl. For testing, a maximum tolerated dose of 4000 mg/kg was administered […] daily for 3 consecutive days, and a dosing volume of 10 ml/kg was used.
2. Animals—Female ICR mice provided by MDS Pharma Services—Taiwan Ltd. were used. Space allocation for 5 animals was 29×18×13 cm. Animals were housed in APEC^R cages and maintained in a controlled temperature (22° C.-24° C.) and humidity (60%-80%) environment with 12 hours light dark cycles for at least one week in MDS Pharma Services—Taiwan Laboratory prior to use. Free access to standard lab chow for rats (Lab Diet, Rodent Diet, PMI Nutrition International, USA) and tap water was granted. All aspects of this work including housing, experimentation and disposal of animals were performed in general accordance with the International Guiding Principles for Biomedical Research Involving Animals (CIOMS Publication No. ISBN 92 90360194, 1985),
Test substance was administered at a maximum tolerated dose of 4000 mg/kg IP for three consecutive days to a group of 5 ICR derived immature female mice weighing 13±1 g. The animals were sacrificed 24 hours after the final dose and wet weight of the uterus of each animal was measured. A 50 percent or more (≧50%) increase in uterine wet weight relative to control group of animals indicates possible estrogen agonist activity.
A vehicle or test substance was administered IP for three consecutive days to female immature mice weighing 13±1 g. The animals were sacrificed 24 hours after the final dose and wet weight of the uterus of each animal was determined. A 50 percent or more (≧50%) increase in uterine wet weight relative to the vehicle treated group of animals, shown in parenthesis, indicates possible estrogen agonist activity.

Take `C[C@]12CC[C@@H]3c4ccc(OC(=O)c5ccccc5)cc4CC[C@H]3[C@@H]1CC[C@@H]2O` [β-Estradiol 3-Benzoate]: the “Weight of Uterus, Average” value turned out to be 30.2 mg and the “% Increase in uterine wet weight” value is reported as “(83) %”. For the same molecule, under “listed as Estradiol 3-Bensoate”, the “% Increase in uterine wet weight” value is on record as “dramatic increase”. Besides, where the note is “listed as β-Estadiol 3-Benzoate”, the “% Increase in uterine wet weight” value is given as 83%. In addition, the “Weight of Uterus, Individual” value (single animals N 1-5) was 28.7 mg and 20.7 mg and 31.3 mg and 35.6 mg and 34.9 mg.
